pIC50, pKi: −log10 of the molar value. Each block holds one compound with its values, some of them ahead of it.
How the values were obtained:
[1] = test system: diacylglycerol kinase α (DGKα); settings: at 5 μM; cited from earlier work
δ-isozyme of DGK = settings: at 5 μM; cited from earlier work
κ-isozyme of DGK = settings: at 5 μM; cited from earlier work
ι-isozyme of DGK = settings: at 5 μM; cited from earlier work
[2] = assay type: physicochemical; settings: for discoloration of solutions prepared for NMR: DMSO-d6 or CDCl3, ambient temperature; for discoloration when dissolved in DMSO: 5 days at ambient temperature
ABCC2 = settings: read-out: IC50 in at least one assay; cited from earlier work
MSN/CD44 = MSN/CD44 (Homo sapiens, UniProt P26038); assay type: binding; settings: for activity in MSN/CD44 TR-FRET assay: in words
IspF domain = settings: cited from earlier work
H. pylori = settings: cited from earlier work
Shank3 PDZ domain = settings: read-out: Shank3 IC50; cited from earlier work
NS5 = settings: read-out: NS5 Ki; cited from earlier work
cell cycle progression = settings: at ≥30 μM; cited from earlier work
EZH2-EED interaction = settings: cited from earlier work
WT PRC2-EZH2 = settings: cited from earlier work

Chain of MSN/CD44 (P26038 2-295): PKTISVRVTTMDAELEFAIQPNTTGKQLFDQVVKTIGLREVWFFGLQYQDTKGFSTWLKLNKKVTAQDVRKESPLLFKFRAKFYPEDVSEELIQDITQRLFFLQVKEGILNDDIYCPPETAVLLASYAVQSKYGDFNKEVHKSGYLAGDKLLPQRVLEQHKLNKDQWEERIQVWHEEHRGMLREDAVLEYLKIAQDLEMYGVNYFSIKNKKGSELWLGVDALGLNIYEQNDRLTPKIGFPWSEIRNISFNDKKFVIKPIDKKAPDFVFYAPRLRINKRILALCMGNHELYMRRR

Compound: CC(=O)c1ccc2c(c1)C1C=CCC1C(C(=O)O)N2 (centres unmarked) [CU-4]
inhibition of α-isozyme of DGK [1]: strongly inhibit
inhibition of δ-isozyme of DGK (δ-isozyme of DGK): strongly inhibit
inhibition of κ-isozyme of DGK (κ-isozyme of DGK): strongly inhibit
inhibition of ι-isozyme of DGK (ι-isozyme of DGK): strongly inhibit

1H NMR analysis of samples kept in CDCl3 ([2]; CDCl3, 120 h in light): no significant changes in the spectra
stability in solution kept in the dark ([2]; DMSO-d6, dark, 72 h, 5 mg): remained a clear solution
stability in solution kept in the light ([2]; DMSO-d6, light, 72 h, 25 mg and 5 mg): decomposed and changed color (purple)
discoloration of solutions prepared for NMR ([2]; 72 h): Discoloration
Compound: CCOC(=O)c1ccc2c(c1)C1C=CCC1C(C(=O)OCC)N2 (centres unmarked) [Compound 1, Diethyl 3a,4,5,9b-tetrahydro-3H-cyclopenta[c]quinoline-4,8-dicarboxylate]

Compound: O=C(O)C1Nc2c(F)cccc2C2C=CCC12 (centres unmarked) [Compound 1e]
pIC50 (ABCC2): > 4.52

activity in MSN/CD44 TR-FRET assay (MSN/CD44): inactive
discoloration when dissolved in DMSO [2]: No discoloration
Compound: CCOC(=O)c1ccc2c(c1)C1CCCC1C(C(=O)OCC)N2 (centres unmarked) [Compound 2]

activity in MSN/CD44 TR-FRET assay (MSN/CD44): inactive
discoloration when dissolved in DMSO [2]: No discoloration
Compound: O=C(O)c1ccc2c(c1)C1CCCC1C(C(=O)O)N2 (centres unmarked) [Compound 3]

Compound: O=C(O)C1Nc2ccc(Oc3ccccc3)cc2C2C=CCC12 (centres unmarked) [Compound 27]
inhibitory effect in IspF domain assay (IspF domain): did not show an inhibitory effect
inhibition of H. pylori growth (H. pylori): only a weak inhibitor

Compound: O=C(O)[C@@H]1Nc2c(O)cc(Cl)c([N+](=O)[O-])c2[C@@H]2C=CC[C@H]12 [Compound 34]
pIC50 (Shank3 PDZ domain): > 3.60

Compound: O=C(O)C1Nc2c(I)cccc2C2C=CCC12 (centres unmarked) [Compound 5660163]
pKi (NS5): > 5.00

Hill coefficient (MSN/CD44; MSN/CD44 TR-FRET dose–response curve): 3.4
discoloration of solution prepared for biological evaluation ([2]; DMSO (10 mM)): same discoloration
discoloration of solutions prepared for NMR ([2]; 72 h): Discoloration
Compound: O=C(O)c1ccc2c(c1)C1C=CCC1C(C(=O)O)N2 (centres unmarked) [Compound 5661118]
cell cycle arrest (cell cycle progression): failed to elicit cell cycle arrest

Compound: O=C(O)c1cc(-c2ccccn2)c2c(c1)C1C=CCC1C(C(=O)O)N2 (centres unmarked) [WNN2074-A009]
inhibition of the EZH2-EED interaction (EZH2-EED interaction): weak
inhibition of WT PRC2-EZH2 (WT PRC2-EZH2): inhibited
